Results as given in PubChem BioAssay AID330 (DTP/NCI, 2004).
Toxic doses and inconclusive results are not listed. The calls were made as follows: active = survival T/C of 150% or more; inactive = T/C below 125% in these data.

Test system: P388 leukemia ip, CD2F1 mice, survival T/C
Experiment: NCI In Vivo Anticancer Drug Screen. Data for tumor model P388 Leukemia (intraperitoneal) in CD2F1 (CDF1) mice
Conditions: endpoint: median survival time, higher = longer survival
Method in brief: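 Mice carrying the transplanted tumor received test compound or vehicle. Survival was recorded in each group, and the value is the treated-group measurement divided by that of the vehicle-treated control group.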

[1] = dose: 100.0 mg/kg/injection, schedule: Q04DX003 (ip), vehicle: saline with Tween-80
[2] = dose: 200.0 mg/kg/injection, schedule: Q04DX003 (ip), vehicle: saline with Tween-80
[3] = dose: 100.0 mg/kg/injection, schedule: Q01DX001 (ip), vehicle: saline with Tween-80
[4] = dose: 200.0 mg/kg/injection, schedule: Q01DX001 (ip), vehicle: saline with Tween-80
[5] = dose: 50.0 mg/kg/injection, schedule: Q01DX009 (ip), vehicle: Klucel (hydroxypropylcellulose) (HPC)
[6] = dose: 100.0 mg/kg/injection, schedule: Q01DX009 (ip), vehicle: Klucel (hydroxypropylcellulose) (HPC)
[7] = dose: 200.0 mg/kg/injection, schedule: Q01DX009 (ip), vehicle: Klucel (hydroxypropylcellulose) (HPC)

Measured: T/C

CC(=O)Nc1c(Cl)c(Cl)c2c(c1Cl)Cc1cc(Cl)c(Cl)cc1-2
inactive: dose: 12.5 mg/kg/injection, schedule: Q01DX009 (ip), vehicle: saline with Tween-80 100 % of control | dose: 25.0 mg/kg/injection, schedule: Q01DX009 (ip), vehicle: saline with Tween-80 100 % of control | dose: 50.0 mg/kg/injection, schedule: Q01DX009 (ip), vehicle: saline with Tween-80 95 % of control | [1] 109 % of control | [2] 100 % of control | dose: 400.0 mg/kg/injection, schedule: Q04DX003 (ip), vehicle: saline with Tween-80 104 % of control

Brc1cnc2nc(-c3cccc4ccccc34)[nH]c2c1
inactive: [3] 96 % of control | [4] 94 % of control | dose: 400.0 mg/kg/injection, schedule: Q01DX001 (ip), vehicle: saline with Tween-80 91 % of control

CSC(=S)/C=C(\O)c1ccccc1
inactive: dose: 100.0 mg/kg/injection, schedule: Q04DX003 (ip), vehicle: saline 95 % of control | dose: 200.0 mg/kg/injection, schedule: Q04DX003 (ip), vehicle: saline 104 % of control

CCOC(=O)Nc1cc(NC/C(=N/O)c2ccc([N+](=O)[O-])cc2)c([N+](=O)[O-])c(N)n1
inactive: dose: 50.0 mg/kg/injection, schedule: Q01DX001 (ip), vehicle: saline with Tween-80 92 % of control | [3] 92 % of control | [4] 89 % of control

CCOC(=O)C1(CN(C)c2ccccc2)C(C(C)=O)=CNc2c(C#N)cnn21 (stereo not given)
inactive: dose: 50.0 mg/kg/injection, schedule: Q01DX005 (ip), vehicle: saline with Tween-80 99 % of control | dose: 100.0 mg/kg/injection, schedule: Q01DX005 (ip), vehicle: saline with Tween-80 98 % of control | dose: 200.0 mg/kg/injection, schedule: Q01DX005 (ip), vehicle: saline with Tween-80 106 % of control

CN(/N=C/c1ccccc1)c1nnnn1-c1ccccc1
inactive: dose: 50.0 mg/kg/injection, schedule: Q01DX005 (ip), vehicle: saline + Tween-80 + alcohol 103 % of control | dose: 100.0 mg/kg/injection, schedule: Q01DX005 (ip), vehicle: saline + Tween-80 + alcohol 97 % of control | dose: 200.0 mg/kg/injection, schedule: Q01DX005 (ip), vehicle: saline + Tween-80 + alcohol 89 % of control

C=CCNc1ccc(OC)cc1
inactive: dose: 50.0 mg/kg/injection, schedule: Q04DX003 (ip), vehicle: saline with Tween-80 100 % of control | [1] 100 % of control | [2] 100 % of control

O=C(Cc1nc2ccccc2n2nnnc12)NCCO
inactive: dose: 100.0 mg/kg/injection, schedule: Q04DX002 (ip), vehicle: Klucel + Tween-80 99 % of control | dose: 200.0 mg/kg/injection, schedule: Q04DX002 (ip), vehicle: Klucel + Tween-80 88 % of control | dose: 400.0 mg/kg/injection, schedule: Q04DX002 (ip), vehicle: Klucel + Tween-80 92 % of control

O=C1Nc2ccccc2/C1=C/c1ccco1
inactive: [5] 99 % of control | [6] 113 % of control | [7] 89 % of control

COc1cccc(CCCC(=O)O)c1
inactive: [6] 100 % of control | [7] 100 % of control | dose: 400.0 mg/kg/injection, schedule: Q01DX009 (ip), vehicle: Klucel (hydroxypropylcellulose) (HPC) 104 % of control

CCOC(=O)CCC(CC)NC(=O)c1ccc(N)cc1 (stereo not given)
inactive: dose: 12.5 mg/kg/injection, schedule: Q01DX009 (ip), vehicle: distilled water + Tween-80 93 % of control | dose: 25.0 mg/kg/injection, schedule: Q01DX009 (ip), vehicle: distilled water + Tween-80 91 % of control | dose: 50.0 mg/kg/injection, schedule: Q01DX009 (ip), vehicle: distilled water + Tween-80 98 % of control | dose: 100.0 mg/kg/injection, schedule: Q01DX009 (ip), vehicle: distilled water + Tween-80 102 % of control | dose: 200.0 mg/kg/injection, schedule: Q01DX009 (ip), vehicle: distilled water + Tween-80 106 % of control

CC1(C)CCCC(C)(C2CCC3(C)C2C(O)CC2C4(C)CCC(O)C(C)(C)C4C(O)CC23C)O1 (stereo not given)
inactive: dose: 6.25 mg/kg/injection, schedule: Q01DX009 (ip), vehicle: Klucel (hydroxypropylcellulose) (HPC) 101 % of control | dose: 12.5 mg/kg/injection, schedule: Q01DX009 (ip), vehicle: Klucel (hydroxypropylcellulose) (HPC) 99 % of control | dose: 25.0 mg/kg/injection, schedule: Q01DX009 (ip), vehicle: Klucel (hydroxypropylcellulose) (HPC) 96 % of control | [5] 92 % of control | [6] 92 % of control

Clc1nc2n[nH]nc2nc1Cl
inactive: dose: 3.13 mg/kg/injection, schedule: Q04DX003 (ip), vehicle: saline 100 % of control | dose: 6.25 mg/kg/injection, schedule: Q04DX003 (ip), vehicle: saline 90 % of control | dose: 12.5 mg/kg/injection, schedule: Q04DX003 (ip), vehicle: saline 95 % of control
